The subject of assay [1] is Wnt activity (Sp5-Luc reporter gene, SW480 colon carcinoma cells). Description: Screening assay for Wnt activity: Sp5-Luc reporter gene assay in SW480 cells. The class given is cell-based, human. To be noted: for EC50: overnight incubation; for inhibition at 10 µM: given for EC50 of >10 μM, read-out: percent inhibition at 10 μM. The gist of the method: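 SW480 cells stably transduced with a luciferase reporter driven by an Sp5 promoter of eight TCF/LEF sites were plated at 4,000 cells/well in 1% FBS medium. They were exposed overnight at 37° C to a 10-point 1:3 dilution series from 10 μM (0.1% DMSO). Luminescence was normalized to DMSO for four-parameter EC50, or percent inhibition at 10 μM.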
On the technique in general: A reporter such as luciferase makes a cellular process visible.

The subject of assay [2] is IL-6. Briefly: IL-6 inhibition in LPS-stimulated THP-1 monocytes (HTRF). In kind it is cell-based, human. To be noted: THP-1 cells; for EC50: 500 ng/mL LPS, 22 h, HTRF IL-6 readout, 10-point dose-response from 10 μM; for inhibition at 10 µM: LPS stimulated, given only where EC50 >10 μM, top concentration 10 μM, read-out: percentage in parentheses beside EC50 >10 (IL-6 inhibition). The gist of the method:
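THP-1 cells serum-reduced (1% FBS, 24 h), then 5000 cells/well preincubated 2 h with compound (10-point 1:3 series from 10 μM, 0.1% DMSO) before 500 ng/mL LPS for 22 h at 37 °C. Secreted IL-6 quantified by HTRF 665/620 ratio; DMSO-normalised duplicates fitted to four-parameter EC50; above 10 μM, % inhibition at 10 μM given.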
(In general: Time-resolved FRET reads energy transfer from a long-lived donor to a nearby acceptor.)

Consider 25 compounds from patent US20180214428A1, “3-(1H-INDOL-2-YL)-1H-PYRAZOLO[3,4-B]PYRIDINES AND THERAPEUTIC USES THEREOF” (Samumed, LLC, priority 2015, published 2018).

By EC50 is commonly meant the concentration giving half of the maximal effect. A high value points to a less potent agent. What is called inhibition is how much of the control response was suppressed.

Take `Cc1ncc(-c2cnc3[nH]nc(-c4cc5ccccc5[nH]4)c3c2)n1C` [Compound 655, 5-(1,2-Dimethyl-1H-imidazol-5-yl)-3-(1H-indol-2-yl)-1H-pyrazolo[3,4-b]pyridine]: the 50% effective concentration (EC50) is 3.34 µM in assay [1] (Homo sapiens) and 4.35 µM in assay [2] (Homo sapiens).
In the case of `Nc1cncc(-c2cnc3[nH]nc(-c4cc5c(-c6ccccn6)cccc5[nH]4)c3c2)c1` [Compound 121, 5-(3-(4-(Pyridin-2-yl)-1H-indol-2-yl)-1H-pyrazolo[3,4-b]pyridin-5-yl) pyridin-3-amine], the half-maximal effective concentration (EC50) in assay [1] (Homo sapiens) stood at 0.174 µM; in assay [2] (Homo sapiens), 0.266 µM.
With `CC(C)Nc1cncc(-c2cnc3[nH]nc(-c4cc5c(-c6cc(F)cc(NCCN(C)C)c6)cccc5[nH]4)c3c2)c1` [Compound 434, N^1-(3-Fluoro-5-(2-(5-(5-(isopropylamino)pyridin-3-yl)-1H-pyrazolo[3,4-b]pyridin-3-yl)-1H-indol-4-yl)phenyl)-N^2,N^2-dimethylethane-1,2-diamine], the EC50 amounted to 0.312 µM in assay [1] (Homo sapiens) and 0.692 µM in assay [2] (Homo sapiens).
For `CN(C)Cc1cncc(-c2cnc3[nH]nc(-c4cc5c(-c6cc(F)cc(CNS(C)(=O)=O)c6)cccc5[nH]4)c3c2)c1` [Compound 463, N-(3-(2-(5-(5-((Dimethylamino)methyl)pyridin-3-yl)-1H-pyrazolo[3,4-b]pyridin-3-yl)-1H-indol-4-yl)-5-fluorobenzyl)methane sulfonamide] the same measures were 0.489 µM and 0.451 µM.
As for `c1ccc(-c2cccc3[nH]c(-c4n[nH]c5ncc(-c6cncnc6)cc45)cc23)nc1` [Compound 143, 3-(4-(Pyridin-2-yl)-1H-indol-2-yl)-5-(pyrimidin-5-yl)-1H-pyrazolo[3,4-b]pyridine], the EC50 in assay [1] (Homo sapiens) is 2.02 µM; in assay [2] (Homo sapiens), greater than 10 µM. Moreover, in assay [2] (Homo sapiens), the inhibition at 10 µM came out at 37.6%.
`Fc1ccc(-c2cccc3[nH]c(-c4n[nH]c5ncc(-c6cncnc6)cc45)cc23)cc1` [Compound 47, 3-(4-(4-Fluorophenyl)-1H-indol-2-yl)-5-(pyrimidin-5-yl)-1H-pyrazolo[3,4-b]pyridine] had an EC50 in assay [1] (Homo sapiens) of 2.75 µM. Further, in assay [2] (Homo sapiens), the EC50 is greater than 10 µM and the inhibition at 10 µM came out at 35.6%.
For the compound `Fc1ccc(-c2cccc3[nH]c(-c4n[nH]c5ncc(-c6cncc(CN7CCCC7)c6)cc45)cc23)cc1` [Compound 35, 3-(4-(4-Fluorophenyl)-1H-indol-2-yl)-5-(5-(pyrrolidin-1-ylmethyl)pyridin-3-yl)-1H-pyrazolo[3,4-b]pyridine], the EC50 is 2.3 µM in assay [1] (Homo sapiens) and 0.212 µM in assay [2] (Homo sapiens).
Regarding `CCCC(=O)Nc1cncc(-c2cnc3[nH]nc(-c4cc5c(-c6cccc(F)c6)cccc5[nH]4)c3c2)c1` [Compound 14, N-(5-(3-(4-(3-Fluorophenyl)-1H-indol-2-yl)-1H-pyrazolo[3,4-b]pyridin-5-yl)pyridin-3-yl)butyramide], the values for the EC50 in assay [1] (Homo sapiens) and in assay [2] (Homo sapiens) were 0.211 µM and greater than 10 µM, respectively. For the same compound, the inhibition at 10 µM in assay [2] (Homo sapiens) is 20.3%.
Consider `CC(C)(C)CC(=O)Nc1cncc(-c2cnc3[nH]nc(-c4cc5ccccc5[nH]4)c3c2)c1` [Compound 242, N-(5-(3-(1H-Indol-2-yl)-1H-pyrazolo[3,4-b]pyridin-5-yl)pyridin-3-yl)-3,3-dimethylbutanamide], for which the EC50 amounted to 1.64 µM in assay [1] (Homo sapiens) and 0.303 µM in assay [2] (Homo sapiens).
For `O=C(CC1CCNCC1)Nc1cncc(-c2cnc3[nH]nc(-c4cc5c(-c6ccccn6)cccc5[nH]4)c3c2)c1` [Compound 595, 2-(Piperidin-4-yl)-N-(5-(3-(4-(pyridin-2-yl)-1H-indol-2-yl)-1H-pyrazolo[3,4-b]pyridin-5-yl)pyridin-3-yl)acetamide] the same measures were 3.71 µM and 0.247 µM.
On to `FC1(F)CCN(Cc2cncc(-c3cnc4[nH]nc(-c5cc6c(-c7ccoc7)cccc6[nH]5)c4c3)c2)C1` [Compound 308, 5-(5-((3,3-Difluoropyrrolidin-1-yl)methyl)pyridin-3-yl)-3-(4-(furan-3-yl)-1H-indol-2-yl)-1H-pyrazolo[3,4-b]pyridine], for which the concentration giving a half-maximal response (EC50) is 1 µM in assay [1] (Homo sapiens) and 7.15 µM in assay [2] (Homo sapiens).
For `CN(C)CCNc1cc(F)cc(-c2cccc3[nH]c(-c4n[nH]c5ncc(-c6cncc(CN7CCCCC7)c6)cc45)cc23)c1` [Compound 437, N^1-(3-Fluoro-5-(2-(5-(5-(piperidin-1-ylmethyl)pyridin-3-yl)-1H-pyrazolo[3,4-b]pyridin-3-yl)-1H-indol-4-yl)phenyl)-N^2,N^2-dimethylethane-1,2-diamine], the EC50 is 2.78 µM in assay [1] (Homo sapiens) and greater than 10 µM in assay [2] (Homo sapiens). Further, the inhibition at 10 µM in assay [2] (Homo sapiens) came to 43.2%.
For `O=C(Nc1cncc(-c2cnc3[nH]nc(-c4cc5c(N6CCCCC6)cccc5[nH]4)c3c2)c1)c1ccccc1` [Compound 155, N-(5-(3-(4-(Piperidin-1-yl)-1H-indol-2-yl)-1H-pyrazolo[3,4-b]pyridin-5-yl)pyridin-3-yl)benzamide] the same measures were 3.47 µM, greater than 10 µM and 21.8%.
As to `O=C(Nc1cncc(-c2cnc3[nH]nc(-c4cc5c(-c6cccnc6)cccc5[nH]4)c3c2)c1)C1CCC1` [Compound 89, N-(5-(3-(4-(Pyridin-3-yl)-1H-indol-2-yl)-1H-pyrazolo[3,4-b]pyridin-5-yl)pyridin-3-yl)cyclobutanecarboxamide], the EC50 came to 0.23 µM in assay [1] (Homo sapiens) and 0.104 µM in assay [2] (Homo sapiens).
For `CN1CCN(c2cccc3[nH]c(-c4n[nH]c5ncc(-c6cncc(CN7CCCCC7)c6)cc45)cc23)CC1` [Compound 215, 3-(4-(4-Methylpiperazin-1-yl)-1H-indol-2-yl)-5-(5-(piperidin-1-ylmethyl)pyridin-3-yl)-1H-pyrazolo[3,4-b]pyridine] the same measures were 4.75 µM and 0.22 µM.
As to `CN1CCN(c2cccc3[nH]c(-c4n[nH]c5ncc(-c6cncc(NC(=O)C7CCCC7)c6)cc45)cc23)CC1` [Compound 222, N-(5-(3-(4-(4-Methylpiperazin-1-yl)-1H-indol-2-yl)-1H-pyrazolo[3,4-b]pyridin-5-yl)pyridin-3-yl)cyclopentanecarboxamide], the EC50 in assay [1] (Homo sapiens) was found to be 1.04 µM; in assay [2] (Homo sapiens), 0.098 µM.
With `c1ccc(-c2cnc3[nH]nc(-c4cc5c(-c6ccncc6)cccc5[nH]4)c3c2)nc1` [Compound 120, 5-(Pyridin-2-yl)-3-(4-(pyridin-4-yl)-1H-indol-2-yl)-1H-pyrazolo[3,4-b]pyridine], in assay [1] (Homo sapiens), the inhibition at 10 µM stood at 16.1% and the EC50 was greater than 10 µM. Also, a half-maximal response in assay [2] (Homo sapiens) (EC50) required 0.103 µM.
On the same counts, the results for `Cc1ccncc1-c1cnc2[nH]nc(-c3cc4c(-c5ccncc5)cccc4[nH]3)c2c1` [Compound 99, 5-(4-Methylpyridin-3-yl)-3-(4-(pyridin-4-yl)-1H-indol-2-yl)-1H-pyrazolo[3,4-b]pyridine] are 69.3%, greater than 10 µM and 0.062 µM.
On to `CN1CCN(c2cccc3[nH]c(-c4n[nH]c5ncc(-c6cncnc6)cc45)cc23)CC1` [Compound 227, 3-(4-(4-Methylpiperazin-1-yl)-1H-indol-2-yl)-5-(pyrimidin-5-yl)-1H-pyrazolo[3,4-b]pyridine], for which the EC50 was determined as 4.31 µM in assay [1] (Homo sapiens) and 3.9 µM in assay [2] (Homo sapiens).
Regarding `CN(C)c1cncc(-c2cnc3[nH]nc(-c4cc5c(-c6cccc(F)c6)cccc5[nH]4)c3c2)c1` [Compound 5, 5-(3-(4-(3-Fluorophenyl)-1H-indol-2-yl)-1H-pyrazolo[3,4-b]pyridin-5-yl)-N,N-dimethylpyridin-3-amine], the figures for the 50% effective concentration (EC50) in assay [1] (Homo sapiens) and in assay [2] (Homo sapiens) were 0.672 µM and 0.899 µM, respectively.
For the compound `CN(C)CCNc1cc(F)cc(-c2cccc3[nH]c(-c4n[nH]c5ncc(-c6ccncc6)cc45)cc23)c1` [Compound 440], the concentration giving a half-maximal response (EC50) in assay [1] is 6.07 µM; in assay [2], 0.015 µM.
In the case of `CC(C)C(=O)Nc1cncc(-c2cnc3[nH]nc(-c4cc5c(N6CCN(C)CC6)cccc5[nH]4)c3c2)c1` [Compound 209, N-(5-(3-(4-(4-Methylpiperazin-1-yl)-1H-indol-2-yl)-1H-pyrazolo[3,4-b]pyridin-5-yl)pyridin-3-yl)isobutyramide], the 50% effective concentration (EC50) in assay [1] (Homo sapiens) worked out at 2.71 µM; in assay [2] (Homo sapiens), 1.21 µM.
In assay [1] (Homo sapiens), `O=C(Nc1cncc(-c2cnc3[nH]nc(-c4cc5c(-c6ccc(F)cc6)cccc5[nH]4)c3c2)c1)C1CCC1` [Compound 41, N-(5-(3-(4-(4-Fluorophenyl)-1H-indol-2-yl)-1H-pyrazolo[3,4-b]pyridin-5-yl)pyridin-3-yl)cyclobutanecarboxamide] came in with an EC50 of 0.543 µM. In assay [2] (Homo sapiens), the EC50 is greater than 10 µM and the inhibition at 10 µM is 10.7%.
Consider `c1ccc(-c2cccc3[nH]c(-c4n[nH]c5ncc(-c6cncc(CN7CCCC7)c6)cc45)cc23)nc1` [Compound 131, 3-(4-(Pyridin-2-yl)-1H-indol-2-yl)-5-(5-(pyrrolidin-1-ylmethyl)pyridin-3-yl)-1H-pyrazolo[3,4-b]pyridine], for which the concentration giving a half-maximal response (EC50) in assay [1] (Homo sapiens) amounted to 4.53 µM; in assay [2] (Homo sapiens), 1.12 µM.
Turning to `O=C(Nc1cncc(-c2cnc3[nH]nc(-c4cc5c(-c6ccc(F)cc6)cccc5[nH]4)c3c2)c1)c1ccccc1` [Compound 32, N-(5-(3-(4-(4-Fluorophenyl)-1H-indol-2-yl)-1H-pyrazolo[3,4-b]pyridin-5-yl)pyridin-3-yl)benzamide], the response in assay [1] (Homo sapiens) was half-maximal at 2.83 µM (EC50). Also, in assay [2] (Homo sapiens), the concentration for a half-maximal effect (EC50) is greater than 10 µM and the inhibition at 10 µM was 17.7%.
